Reference: patent US9730447B2, “Fungicidal amides” (E I DU PONT DE NEMOURS AND COMPANY, priority 2013, dated 2017)
Marks after values point to notes of the source that are not given here.

Experiments:
Format in all cases: in vivo
[1] = test system: Puccinia recondite f. sp. tritici; assay: Test D: preventive spray on wheat seedlings, Puccinia recondite f. sp. tritici (wheat leaf rust), visual disease rating
How it was run: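 Wheat seedlings sprayed to run-off with 40 ppm (160 g ai/ha) or 10 ppm (40 g ai/ha) suspension in acetone/water with 250 ppm surfactant, inoculated next day with leaf rust spores. After 24 h saturated at 20 °C then 6 days at 20 °C, visual rating of disease control (0–100) relative to controls.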

Septoria tritici = assay: Test C: preventive spray on wheat seedlings, Septoria tritici (wheat leaf blotch), visual disease rating
How it was run: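 Wheat seedlings sprayed to run-off at 40 ppm or 10 ppm (160 or 40 g ai/ha) in acetone/water with surfactant, inoculated with Septoria tritici spores next day. Held 48 h saturated at 24 °C, then 21 days at 20 °C. Visual rating scored as % disease control relative to controls.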

[2] = test system: Stagonospora nodorum (also known as Septoria nodorum); assay: Test B: preventive spray on wheat seedlings, Stagonospora nodorum (wheat glume blotch), visual disease rating
How it was run: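 Compounds in acetone/water (50/50) with 250 ppm Trem 014 surfactant were sprayed to run-off at 40 ppm (160 g ai/ha) or 10 ppm (40 g ai/ha). Seedlings were inoculated with S. nodorum spores the next day, then held 48 h saturated at 20 °C and 6 days in a growth chamber at 20 °C. Visual rating as % disease control vs untreated.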

Botrytis cinerea = assay: Test A: preventive spray on tomato seedlings, Botrytis cinerea (gray mold), visual disease rating
How it was run: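 Tomato seedlings sprayed to run-off with 40 ppm or 10 ppm suspensions (160 or 40 g ai/ha) in acetone/water with 250 ppm surfactant. Inoculated with B. cinerea spores next day, held saturated at 20 °C for 48 h, then 27 °C for 2 days. Visual rating, 0–100% disease control relative to controls.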

[3] = test system: Erysiphe graminis f. sp. tritici; assay: Test E: preventive spray on wheat seedlings, Erysiphe graminis f. sp. tritici (wheat powdery mildew), visual disease rating
How it was run: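 Wheat seedlings were sprayed to run-off with 40 or 10 ppm suspension (160 or 40 g ai/ha) and dusted with spores the next day. They were then kept 8 days at 20 °C. Disease was rated visually as % control relative to untreated controls (0–100).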

[4] = 100 = 100% disease control, 0 = no control, unmarked values
[5] = 100 = 100% disease control, 0 = no control relative to controls, unmarked values
[6] = values marked with asterisk (*), meaning not given

SMILES	Test D disease control rating [1, 4] [%]	Test C disease control rating (Septoria tritici; [4]) [%]	Test B disease control rating [2, 4] [%]	Test A disease control rating (Botrytis cinerea; [5]) [%]	Test E disease control rating [3, 4] [%]	Test D disease control rating [1, 6]	Test C disease control rating (Septoria tritici; [6])	Test B disease control rating [2, 6]	Test A disease control rating (Botrytis cinerea; [6])	Test E disease control rating [3, 6]
O=C(Nc1ccccc1-c1cnc(-n2ccc(Cl)n2)c(F)c1)c1ccccc1C(F)(F)F [compound 77]	100	100	0	74	98	–	–	–	–	–
O=C(Nc1ccccc1-c1cnc(-n2cc(Cl)cn2)c(F)c1)c1ccccc1C(F)(F)F [compound 78]	100	100	0	28	97	–	–	–	–	–
O=C(Nc1ccccc1-c1cnc(-n2ccc(Br)n2)c(F)c1)c1ccccc1C(F)(F)F [compound 79]	100	100	0	25	99	–	–	–	–	–
O=C(Nc1ccccc1-c1cnc(-n2ccc(-c3ccccc3)n2)c(F)c1)c1ccccc1C(F)(F)F [compound 80]	88	100	0	0	0	–	–	–	–	–
O=C(Nc1ccccc1-c1ccc(-n2nc(C(F)(F)F)cc2O)nc1)c1ncccc1C(F)(F)F [compound 82]	–	–	–	–	–	97* %	48* %	97* %	31* %	0* %
N#Cc1cnn(-c2ncc(-c3ccccc3NC(=O)c3ncccc3C(F)(F)F)cc2F)c1 [compound 85]	99	45	0	70	0	–	–	–	–	–
N#Cc1ccn(-c2ncc(-c3ccccc3NC(=O)c3ncccc3C(F)(F)F)cc2F)n1 [compound 86]	100	98	0	89	79	–	–	–	–	–
Cn1cc(C(=O)Nc2ccccc2-c2ccc(-n3ccc(-c4cccc(F)c4)n3)nc2)c(C(F)F)n1 [compound 87]	100	97	0	99	64	–	–	–	–	–
COc1ccc(-c2ccn(-c3ccc(-c4ccccc4NC(=O)c4cn(C)nc4C(F)F)cn3)n2)cc1 [compound 88]	100	51	0	100	93	–	–	–	–	–
COc1ccccc1-c1ccn(-c2ccc(-c3ccccc3NC(=O)c3cn(C)nc3C(F)F)cn2)n1 [compound 98]	100	75	0	67	48	–	–	–	–	–
Cn1cc(C(=O)Nc2ccccc2-c2ccc(-n3ccc(-c4ccc(F)cc4)n3)nc2)c(C(F)F)n1 [compound 99]	100	90	0	89	91	–	–	–	–	–
COc1ccc(-c2ccn(-c3ccc(-c4ccccc4NC(=O)c4cn(C)nc4C(F)F)cn3)n2)c(OC)c1 [compound 100]	100	87	60	58	69	–	–	–	–	–
Cn1cc(C(=O)Nc2ccccc2-c2ccc(-n3ccc(-c4ccc(F)cc4F)n3)nc2)c(C(F)F)n1 [compound 101]	100	94	60	71	92	–	–	–	–	–
